{"source": "patent US20050009154A1", "about": "“Biocatalytic preparation of 1-cyano-cyclohexaneacetic acid” (Pfizer Inc, priority 2003, published 2005)", "experiment": "aqueous solubility of the starting material", "assay_type": "physicochemical", "settings": "aqueous buffer; 25° C., 20 mM phosphate buffer, pH 7; read-out: water solubility (aqueous solubility limit)", "protocol": "The enzyme-catalyzed conversion of II to I can be carried out by contacting II with the enzyme catalyst in an aqueous reaction mixture. Compound II, the starting material, which is only moderately water soluble, (ca. 10 mM, 25° C., 20 mM phosphate buffer, pH 7), can be added to an aqueous reaction containing the enzyme catalyst at levels exceeding its aqueous solubility limit. Thus reaction mixtures initially consist of two phases, an aqueous phase containing dissolved II and the enzyme catalyst, and a solid phase containing undissolved II. At complete conversion of II, a single phase containing compound I and the enzyme catalyst remains. The enzyme catalyzed conversion of II to I can be carried out with levels of compound II from about 0.1 g/L to 148 g/L, with a preferred range of about 0.1 g/L to 90 g/L. The enzyme catalyst concentrations used in the present invention depend on the specific activity of the enzyme catalyst and is chosen to obtain the desired rate of reaction.", "data": [{"smiles": "N#CCC1(C#N)CCCCC1", "note": "[Compound II, 1-cyanocyclohexaneacetonitrile]", "values": [{"measurement": "solubility", "result": "~10", "unit": "mM"}]}]}
